# Measured values: ChEMBL document CHEMBL3046381, “Synthesis and Fungicidal Activity of New Six-membered Cyclic Phosphates” (1995)
# Key:
# Assay type in all cases: functional
# [1] = test system: Athelia rolfsii; test: Growth inhibition of Athelia rolfsii at 1000 ppm by agar dilution method; details: Agroathelia rolfsii; read-out: GI
# [2] = test system: Athelia rolfsii; test: Growth inhibition of Athelia rolfsii at 100 ppm by agar dilution method; details: Agroathelia rolfsii; read-out: GI
# [3] = test system: Pythium; test: Growth inhibition of Pythium sp. at 100 ppm by agar dilution method; details: read-out: GI
# [4] = test system: Pythium; test: Growth inhibition of Pythium sp. at 1000 ppm by agar dilution method; details: read-out: GI
# [5] = test system: Pythium; test: Growth inhibition of Pythium sp. at 50 ppm by agar dilution method; details: read-out: GI
# [6] = test system: Pythium; test: Growth inhibition of Pythium sp. at 10 ppm by agar dilution method; details: read-out: GI
# [7] = test system: Athelia rolfsii; test: Growth inhibition of Athelia rolfsii at 10 ppm by agar dilution method; details: Agroathelia rolfsii; read-out: GI
# [8] = test system: Athelia rolfsii; test: Growth inhibition of Athelia rolfsii at 50 ppm by agar dilution method; details: Agroathelia rolfsii; read-out: GI
Structure (SMILES),inhibition of growth at 1000 ppm [1],inhibition of growth at 100 ppm [2],inhibition of growth at 100 ppm [3],inhibition of growth at 1000 ppm [4],inhibition of growth at 50 ppm [5],inhibition of growth at 10 ppm [6],inhibition of growth at 10 ppm [7],inhibition of growth at 50 ppm [8]
CC(C)=CCCC(C)CCOP1(=S)OCc2ccccc2O1 (stereo not given),100%,36.6%,38.8%,96%,,,,
CCCCCCCCCCCCCCCOP1(=S)OCc2ccccc2O1 (stereo not given),32.3%,6%,24.9%,86%,,,,
CCCCCCCCCCCCCOP1(=S)OCc2ccccc2O1 (stereo not given),100%,3.1%,6.3%,100%,,,,
C=CCc1ccc(OP2(=S)OCc3ccccc3O2)c(OC)c1 (stereo not given),100%,25.5%,28.6%,87.4%,,,,
COP1(=S)OCc2ccccc2O1 (stereo not given) [SALITHION],100%,60.7%,74.8%,100%,,,,
CCc1ccc2c(c1)COP(=O)(Oc1ccccc1)O2 (stereo not given),100%,100%,89.1%,98.7%,78.6%,38.5%,26.6%,57.6%
CCc1ccc2c(c1)COP(=S)(Oc1ccc(C)cc1C(C)C)O2 (stereo not given),100%,88.6%,49.5%,100%,,,,
S=P1(OCCc2ccccc2)OCc2ccccc2O1 (stereo not given),100%,81.6%,70.1%,100%,,,,
Cc1ccc(OP2(=S)OCc3cc(C(C)C)ccc3O2)c(C(C)C)c1 (stereo not given),71.3%,62.5%,26.8%,85.9%,,,,
Cc1ccc(OP2(=S)OCc3ccccc3O2)c(C(C)C)c1 (stereo not given),83.3%,37.3%,0%,80.8%,,,,
CCCCCCCOP1(=S)OCc2ccccc2O1 (stereo not given),100%,52.6%,42.4%,100%,,,,
C=CCc1ccc(OP2(=S)OCc3cc(C(C)C)ccc3O2)c(OC)c1 (stereo not given),71.2%,18.8%,22.9%,83.9%,,,,
CCc1ccc2c(c1)COP(=S)(OC)O2 (stereo not given),100%,100%,91.1%,96%,64.4%,1.9%,24.6%,92.4%
O=P1(Oc2ccccc2)OCc2ccccc2O1 (stereo not given),88.7%,2.1%,76%,100%,,,,
CCc1ccc2c(c1)COP(=S)(OCCc1ccccc1)O2 (stereo not given),100%,57%,95.4%,100%,,,,
Cc1ccc(C(C)C)c(OP2(=S)OCc3ccccc3O2)c1 (stereo not given),99.8%,27.7%,45.2%,100%,,,,
Cc1ccc(C(C)C)c(OP2(=S)OCc3cc(C(C)C)ccc3O2)c1 (stereo not given),84.6%,61.9%,33.8%,85.9%,,,,
Cc1ccc(C(C)C)c(OP2(=S)OCc3ccccc3O2)c1Cl (stereo not given),85.5%,12.3%,27.9%,97.4%,,,,
COP1(=S)OCc2cc(C(C)C)ccc2O1 (stereo not given),100%,96.9%,71.1%,82.6%,50%,0%,62%,92.5%
CC(C)c1ccc2c(c1)COP(=S)(OCCc1ccccc1)O2 (stereo not given),100%,30.6%,74.6%,100%,,,,
CCc1ccc2c(c1)COP(=S)(Oc1cc(C)ccc1C(C)C)O2 (stereo not given),100%,30.4%,41.7%,96.8%,,,,
CCCCCCCCCCCOP1(=S)OCc2ccccc2O1 (stereo not given),88.1%,25%,0%,100%,,,,
